Data on two compounds can be found in patent US20210155715A1, “USE OF TRYPTOPHAN DERIVATIVES AND L-METHIONINE FOR PROTEIN FORMULATION” (Genentech, Inc., priority 2018, published 2021).

Data set [1] can be described thus: AAPH chemical oxidation stress of mAb1/mAb2, LC-MS peptide mapping. Format: physicochemical. To be noted: 0.3 mM NAT.
Excerpt: Antibodies were subjected to AAPH stress followed by peptide mapping to identify the CDR and Fc residues that were sensitive to oxidation (Dion et al., manuscript in preparation). […] If a residue oxidized by >5% relative to the control, it was deemed sensitive and monitored throughout the course of the experiments. […] In brief, samples were denatured, reduced, carboxylmethylated and subjected to trypsin digestion. Peptides were separated on an Acquity UPLC Peptide CSH C18 column using a water/acetonitrile/formic acid gradient on a Waters Acquity H-Class UHPLC coupled to a Thermo Q Exactive Plus high-resolution mass spectrometer. Data was processed using Thermo Scientific PepFinder™ and Xcalibur™ software. Integration was performed on extracted ion chromatograms of monoisotopic m/z using the most abundant charge state(s) for the native and oxidized peptides. The percent oxidation was calculated by dividing the peak area of the oxidized peptides by the summed peak area of the native and oxidized peptides. The major tryptophan degradation products (+16 and +32, in addition to +4, +20, and +48 for highly oxidized sites) were summed and used to calculate tryptophan oxidation. Only methionine sulfoxide (M+16) was used to calculate methionine oxidation, as methionine sulfone (M+32) was not observed under these conditions. […]
For data set [2], the target named is T1, neurokinin-1 (NK-1) receptor (Homo sapiens, UniProt P25103).
T1 construct: U373MG human astrocytoma cells which endogenously express the receptor; endogenous in cells; host or cells: U373MG human astrocytoma cells
T1 sequence (P25103 whole entry): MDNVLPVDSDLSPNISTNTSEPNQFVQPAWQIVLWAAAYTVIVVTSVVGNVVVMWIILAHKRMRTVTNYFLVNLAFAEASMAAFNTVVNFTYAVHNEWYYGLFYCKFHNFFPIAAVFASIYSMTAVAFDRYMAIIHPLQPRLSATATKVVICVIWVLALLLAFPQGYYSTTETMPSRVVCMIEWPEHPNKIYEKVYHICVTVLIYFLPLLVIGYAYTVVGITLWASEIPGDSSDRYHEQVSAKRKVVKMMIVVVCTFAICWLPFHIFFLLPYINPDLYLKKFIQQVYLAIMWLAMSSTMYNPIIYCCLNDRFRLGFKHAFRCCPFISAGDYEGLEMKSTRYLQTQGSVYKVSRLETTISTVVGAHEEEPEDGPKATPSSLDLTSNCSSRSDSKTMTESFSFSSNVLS
The experiment in a line: Binding to the NK-1 receptor in U373MG human astrocytoma cells. To be noted: room temperature. The protocol:
The activity of NAT was assessed in binding, cellular and nuclear receptor functional and tissue bioassays. Binding to the neurokinin-1 (NK-1) receptor was assessed in U373MG human astrocytoma cells which endogenously express the receptor (Eistetter et al. (1992) Functional characterization of Neurokinin-1 receptors on human U373MG astrocytoma cells. Glia 6(2):89-95; Heuillet et al. (1993) J. Neurochem 60(3):868-876), and compared to the reference agonist [Sar^9, Met(O2)^11]-SP or to the reference antagonist L 733,060. NAT or the reference compounds were incubated with U373MG cells at room temperature; all concentrations were assayed in duplicate.

Data set [3] in a line: Light exposure stress (high intensity UV) of mAb1/mAb2, LC-MS peptide mapping. Format: physicochemical. To be noted: 5 mM L-Methionine. The text has this: Antibodies were subjected to AAPH stress followed by peptide mapping to identify the CDR and Fc residues that were sensitive to oxidation (Dion et al., manuscript in preparation). Kabat numbering was used to identify variable fragment (Fv) residues, while EU nomenclature (Edelman et al. (1969) Proc Natl Acad Sci USA 63(1):78-85) was used to identify Fc residues. If a residue oxidized by >5% relative to the control, it was deemed sensitive and monitored throughout the course of the experiments. Peptide mapping and analysis information was as reported in Dion et al. (manuscript in preparation). In brief, samples were denatured, reduced, carboxylmethylated and subjected to trypsin digestion. […] The percent oxidation was calculated by dividing the peak area of the oxidized peptides by the summed peak area of the native and oxidized peptides. […]
Proteins (10 mg/mL) were exposed to light stress with a high intensity UV component (300 kilolux-hours visible light and 50 W·h/m^2 of near UV (320-400 nm) light over a 6-hour period) at various NAT concentrations (0-1 mM NAT) to determine the efficacy of NAT as an antioxidant against photo-oxidation (FIGS. 3A-B). […] Residues that were determined to be insensitive to light oxidation under antioxidant-free conditions remained insensitive to light when NAT was added to the formulation under the tested conditions.

Bounds are passed on as bounds.

In the case of `CC(=O)NC(Cc1c[nH]c2ccccc12)C(=O)O` (racemic) [NAT, N-acetyl-DL-tryptophan], the “oxidation of CDR and Fv tryptophan residues” value in data set [1] is reported as below 10%. Also, in data set [2], the “IC50 for agonist binding to the NK-1 receptor” value is “could not be calculated” and the “IC50 for antagonist binding to the NK-1 receptor” value is on record as “could not be calculated”.

For `CSCC[C@H](N)C(=O)O` [L-Methionine, L-methionine], the “impact on oxidation of CDR and Fv residues” value in data set [3] (alone or with 0.3 mM NAT, UV light) was “no beneficial impact”. In addition, the “UV light-induced Fc methionine oxidation” value in data set [3] (mAb1 and mAb2) is reported as “improved”.
